We go through 1 substance from publication PMC9475553, “SHF Acts as a Novel Tumor Suppressor in Glioblastoma Multiforme by Disrupting STAT3 Dimerization” (Advanced Science, 2022).

For test [1], the system named is U87 xenograft tumor cell proliferation. The test can be described thus: EdU incorporation in intracranial U87 xenografts. The format is in vivo, mouse. As to conditions: 10 µg i.p. once every 2 days; EdU 24 h prior to sacrifice; vs SC; n = 6, p < 0.01. The source says: Considering that the SH2 domain predominantly represents the inhibition of SHF on STAT3 dimerization and activity, we speculated that this domain may be an optional target for GBM suppression. To this end, we analyzed the mechanical interaction of SHF and STAT3. The structures of human SHF (aa265‐421) and STAT3 (aa130‐715). both of which spanned their respective SH2 domain. were simulated by Swiss‐Model server (https://swissmodel.expasy.org/). To simulate the interaction of SHF and STAT3, Discovery studio 2018 was employed to complete protein‐protein docking using ZDOCK as an initial stage. A rigid body molecular docking algorithm utilizing a fast Fourier transform (FFT) algorithm was used to further improve performance for searching in translational space. […] Next, we determined the implication of C16 in tumor inhibition. […] A concentration of 25 uM was determined to be adequate for use in the subsequent experiments. […]
Figure 7 Peptide derived from the STAT3‐binding sites of SHF is an effective GBM suppressive strategy. […] B) IF staining determined the cell penetrability and nuclear‐localization of C16. […] The relative quantification of STAT3 dimerization was listed. […] The relative quantification of STAT3/DNMT1 interaction was listed. […] The relative quantification of STAT3/DNMT1 interaction was listed. […]

A further test concerns GBM cells. Nature of the test: Colony formation assay. The format is cell-based, human. As to conditions: C16 vs SC; 25 uM stated adequate for subsequent experiments; n=6, P < 0.01. As for the experimental part: Cell growth was quantified using the Cell Counting Kit‐8 Assay Kit (Bimake, Houston, TX). Each experiment was repeated at least six times. For the colony formation assay, 800 cells were seeded into each well of a six‐well plate with soft agar (Agarose; Sigma, St. Louis, MO) and maintained in a medium containing 10% FBS for 14 days. The colonies were fixed with methanol and stained with 0.1% crystal violet; the clones containing at least 50 cells were counted using an inverted microscope.
Supplementary Fig. 9 C16 inhibits tumor growth and promotes chemosensitivity in vitro.
B. Colony formation of cells treated with SC or C16 (left) and the accompanying statistical
analysis (right; n=6, Student’s t-test, **P < 0.01).
C. Annexin V staining flow cytometry assay of cells simultaneously treated with Dox with SC or
C16 for 48 h (n=3, Student’s t-test, *P < 0.05, **P < 0.01).
(1 picture or pasted object on this page, not shown here)

As for “C16: peptide spanning SHF amino acids 388–421, palmitic acid at the N-terminus, amidated C-terminus, 3× His tags added to the C-terminal (PFSSVPEIVHHYASRKLPIKGAEHMSLLYPVAIR; palmitic acid at the N-terminus; amidated C-terminus; left off: 3× His tags, C-terminal, kept)”, in test [1], the “EdU positive cells in xenografts” value is given as “significantly decreased”. In addition, the colony growth entry in the test on GBM cells is given as “effectively impaired colony growth”.
